From patent publication US10239887B2, “Positive allosteric modulators of the muscarinic acetylcholine receptor M4” (Vanderbilt University, priority 2016, dated 2019)
Counter-ions that a name gives are not always drawn. Like-named read-outs stand apart in the source and are kept apart here.

Target: T1, human mAChR M4 (Homo sapiens, UniProt P08173)
T1 sequence (P08173 1-479): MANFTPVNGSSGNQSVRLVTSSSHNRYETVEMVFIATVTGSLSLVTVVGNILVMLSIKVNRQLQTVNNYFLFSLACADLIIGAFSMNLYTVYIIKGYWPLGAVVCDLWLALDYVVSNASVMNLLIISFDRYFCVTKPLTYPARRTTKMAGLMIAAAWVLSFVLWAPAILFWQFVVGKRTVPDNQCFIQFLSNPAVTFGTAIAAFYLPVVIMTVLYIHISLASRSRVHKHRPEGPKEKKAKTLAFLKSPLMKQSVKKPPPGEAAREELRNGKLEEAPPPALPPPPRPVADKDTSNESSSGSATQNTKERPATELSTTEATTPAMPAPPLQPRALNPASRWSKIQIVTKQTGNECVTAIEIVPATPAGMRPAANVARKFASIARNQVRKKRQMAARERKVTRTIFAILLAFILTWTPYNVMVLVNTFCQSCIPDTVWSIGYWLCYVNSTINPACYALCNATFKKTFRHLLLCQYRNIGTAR
Assay: mAChR M4 cell-based functional assay (calcium flux), human M4
Details: for Emax: % ACh maximum at 30 μM

[1] = Human M4 EC50, CHO-K1 hM4-Gqi5 cells, calcium flux, increase in EC20 acetylcholine response
[2] = Human M4 EC50 (nM), Table 10, calcium flux, PAM activity with EC20 acetylcholine

| Compound | EC50 [2] | Emax (Table 10) | also measured |
| --- | --- | --- | --- |
| Cc1nnc2oc3c(NC4CC5(COC5)C4)ncnc3c2c1C [Compound 71, 3,4-dimethyl-N-(2-oxaspiro[3.3]heptan-6-yl)pyrimido[4′,5′:4,5] furo[2,3-c]pyridazin-8-amine] | – | – | Emax (Human M4): 37.2%; EC50 [1]: > 10000 nM |
| Cc1nnc2oc3c(NC4CC(F)(F)C4)ncnc3c2c1C [Compound 72, N-(3,3-difluorocyclobutyl)-3,4-dimethyl-pyrimido [4′,5′:4,5]furo[2,3-c]pyridazin-8-amine] | – | – | Emax (Human M4): 57.9%; EC50 [1]: 1750 nM |
| Cc1nnc2oc3c(N4CC5(COC5)C4)ncnc3c2c1C [Compound 73, 3,4-dimethyl-8-(2-oxa-6-azaspiro[3.3]heptan-6-yl)pyrimido[4′,5′:4,5]furo [2,3-c]pyridazine] | – | – | Emax (Human M4): 46.1%; EC50 [1]: 4840 nM |
| Cc1nnc2oc3c(NCc4ccc(C(C)(C)O)nc4)ncnc3c2c1C [Compound 74, 2-[5-[[(3,4-dimethylpyrimido [4′,5′:4,5]furo[2,3-c]pyridazin-8-yl)amino]methyl]-2-pyridyl]propan-2-ol] | – | – | Emax (Human M4): 59.5%; EC50 [1]: 9160 nM |
| COc1ccc(CNc2ncnc3c2oc2nnc(C)c(C)c23)cc1F [Compound 75, N-[(3-fluoro-4-methoxy-phenyl)methyl]-3,4-dimethyl-pyrimido[4′,5′:4,5]furo[2,3-c]pyridazin-8-amine] | – | – | Emax (Human M4): 36.4% |
| COc1ccc(C2CC2Nc2ncnc3c2sc2nnc(C)c(C)c23)cc1 (stereo not drawn) [Compound 77, N-(2-(4-methoxyphenyl)cyclopropyl)-3,4-dimethylpyrimido [4′,5′:4,5]thieno[2,3-c] pyridazin-8-amine] | 200 nM | 86% | – |
| COc1ccc(CNc2ncnc3c2sc2nnc(C)c(C)c23)cc1F [Compound 78, N-(3-fluoro-4-methoxybenzyl)-3,4-dimethylpyrimido [4′,5′:4,5]thieno[2,3-c] pyridazin-8-amine] | – | 71.6% | – |
| Cc1nnc2sc3c(NCc4ccc(-c5cccnc5F)cc4)ncnc3c2c1C [Compound 79, N-(4-(2-fluoropyridin-3-yl)benzyl)-3,4-dimethylpyrimido [4′,5′:4,5]thieno[2,3-c] pyridazin-8-amine] | 773 nM | 95.2% | – |
| Cc1nnc2sc3c(N4CC(C)(O)C4)ncnc3c2c1C [Compound 80, 1-(3,4-dimethylpyrimido [4′,5′:4,5]thieno[2,3-c]pyridazin-8-yl)-3-methyl-azetidin-3-ol] | – | 62.1% | – |
| Cc1nnc2sc3c(NC4CCN(c5cccc(F)c5F)C4)ncnc3c2c1C (stereo not drawn) [Compound 81, N-[1-(2,3-difluorophenyl)pyrrolidin-3-yl]-3,4-dimethyl-pyrimido [4′,5′:4,5]thieno[2,3-c] pyridazin-8-amine] | 3120 nM | 62.6% | – |
| Cc1nnc2sc3c(NC4CN(c5ncc(C6CC6)cc5Cl)C4)ncnc3c2c1C [Compound 82, N-[1-(3-chloro-5-cyclopropyl-2-pyridyl)azetidin-3-yl]-3,4-dimethyl-pyrimido [4′,5′:4,5]thieno[2,3-c] pyridazin-8-amine] | – | 50.1% | EC50 (Human M4 EC50 (nM), Table 10, unit μM (bounds)): > 10000 nM |
| Cc1nc(C2CC2)ccc1N1CC(Nc2ncnc3c2sc2nnc(C)c(C)c23)C1 [Compound 83, N-[1-(6-cyclopropyl-2-methyl-3-pyridyl)azetidin-3-yl]-3,4-dimethyl-pyrimido [4′,5′:4,5]thieno[2,3-c] pyridazin-8-amine] | 288 nM | 59.7% | – |
| Cc1nnc2sc3c(NC4CN(c5ncc(F)cn5)C4)ncnc3c2c1C [Compound 84, N-[1-(5-fluoropyrimidin-2-yl)azetidin-3-yl]-3,4-dimethyl-pyrimido [4′,5′:4,5]thieno[2,3-c] pyridazin-8-amine] | – | 64.9% | EC50: 27.6 nM |
| Cc1nnc2sc3c(NC4CN(c5cc(Cl)ncc5Cl)C4)ncnc3c2c1C [Compound 85, N-[1-(2,5-dichloro-4-pyridyl)azetidin-3-yl]-3,4-dimethyl-pyrimido [4′,5′:4,5]thieno[2,3-c] pyridazin-8-amine] | – | 74.3% | – |
| Cc1nnc2sc3c(NC4CN(c5cnc(C6CC6)cn5)C4)ncnc3c2c1C [Compound 86, N-[1-(5-cyclopropylpyrazin-2-yl)azetidin-3-yl]-3,4-dimethyl-pyrimido [4′,5′:4,5]thieno[2,3-c] pyridazin-8-amine] | 60.4 nM | 69% | – |
| Cc1nnc2sc3c(NC4CN(C(=O)OC(C)(C)C)C4)ncnc3c2c1C [Compound 87, tert-butyl 3-[(3,4-dimethylpyrimido [4′,5′:4,5]thieno[2,3-c]pyridazin-8-yl)amino] azetidine-1-carboxylate] | 139 nM | 70.5% | – |
| Cc1nnc2sc3c(NC4CNC4)ncnc3c2c1C [Compound 88, N-(azetidin-3-yl)-3,4-dimethyl-pyrimido [4′,5′:4,5]thieno[2,3-c] pyridazin-8-amine dihydrochloride] | 1190 nM | 73.7% | – |
| Cc1nnc2sc3c(NC4CN(c5ncc(OC(C)C)cn5)C4)ncnc3c2c1C [Compound 89, N-[1-(5-isopropoxypyrimidin-2-yl)azetidin-3-yl]-3,4-dimethyl-pyrimido [4′,5′:4,5]thieno[2,3-c] pyridazin-8-amine] | 75.2 nM | 57.8% | – |
| Cc1nnc2sc3c(NCc4ccc(OC(F)F)nc4)ncnc3c2c1C [Compound 90, N-[[6-(difluoromethoxy)-3-pyridyl]methyl]-3,4-dimethyl-pyrimido [4′,5′:4,5]thieno[2,3-c] pyridazin-8-amine] | 277 nM | 76.7% | – |
| Cc1nnc2sc3c(NCc4ccc(OCC5CC5)c(F)c4)ncnc3c2c1C [Compound 91, N-[[4-(cyclopropylmethoxy)-3-fluoro-phenyl]methyl]-3,4-dimethyl-pyrimido [4′,5′:4,5]thieno[2,3-c] pyridazin-8-amine] | 3130 nM | 61.8% | – |
| Cc1nnc2sc3c(NCc4ccc(S(F)(F)(F)(F)F)cc4)ncnc3c2c1C [Compound 92, 3,4-dimethyl-N-[[4-(pentafluoro-λ6-sulfanyl)phenyl]methyl]pyrimido [4′,5′:4,5]thieno[2,3-c] pyridazin-8-amine] | 5270 nM | 67.3% | – |
| Cc1nnc2sc3c(NCc4ccc(S(C)(=O)=O)cc4)ncnc3c2c1C [Compound 93, 3,4-dimethyl-N-[(4-methylsulfonylphenyl)methyl] pyrimido[4′,5′:4,5]thieno [2,3-c]pyridazin-8-amine] | 192 nM | 61.3% | – |
| COc1ccc(CNc2ncnc3c2sc2nnc(C)c(C)c23)cc1OC [Compound 94, N-[(3,4-dimethoxyphenyl)methyl]-3,4-dimethyl-pyrimido[4′,5′:4,5]thieno [2,3-c]pyridazin-8-amine] | 639 nM | 79.7% | – |
| Cc1nnc2sc3c(N4CC(N)C4)ncnc3c2c1C [Compound 95, 1-(3,4-dimethylpyrimido [4′,5′:4,5]thieno[2,3-c]pyridazin-8-yl) azetidin-3-amine] | 395 nM | 61.4% | – |
| CC(=O)NC1CN(c2ncnc3c2sc2nnc(C)c(C)c23)C1 [Compound 96, N-[1-(3,4-dimethylpyrimido [4′,5′:4,5]thieno[2,3-c]pyridazin-8-yl)azetidin-3-yl]acetamide] | 830 nM | 60.3% | – |
| Cc1nnc2sc3c(N4CC(NC(=O)c5ccncc5)C4)ncnc3c2c1C [Compound 97, N-[1-(3,4-dimethylpyrimido [4′,5′:4,5]thieno[2,3-c]pyridazin-8-yl)azetidin-3-yl]pyridine-4-carboxamide hydrochloride] | 1130 nM | 51.7% | – |
